# Results from patent US20230398130A1, “METHODS AND COMPOSITIONS FOR DIFFERENTIATING STEM CELLS” (Massachusetts Institute of Technology, priority 2020, published 2023).
# Tests used:
# ISC-enriched organoids [1] = experiment: Primary screen, 384-well 2.5-D organoid differentiation (ENR+CD, 6 days): basal lysozyme secretion (LYZ.NS); format: cell-based, murine; conditions: for Dose.FC.LYZ.NS / Z.LYZ.NS / SSMD.LYZ.NS: primary screen; for Dose.FC.LYZ.NS: FC vs plate median; for Dose.FC.LYZ.NS (log 2 fold change, basal lysozyme secretion): vs plate median; for SSMD.LYZ.NS: strictly standardized mean difference
# Description: (§1) High-throughput screening.
# ISC-enriched organoids [2] = experiment: Primary screen, 384-well 2.5-D organoid differentiation (ENR+CD, 6 days): carbachol-induced lysozyme secretion (LYZ.S); format: cell-based, murine; conditions: for Dose.FC.LYZ.S / Z.LYZ.S / SSMD.LYZ.S: primary screen; for Dose.FC.LYZ.S: FC vs plate median; for Dose.FC.LYZ.S (log 2 fold change, carbachol-induced lysozyme secretion): vs plate median; for Z.LYZ.S: standard z score; for SSMD.LYZ.S: strictly standardized mean difference
# Description: as §1
# ISC-enriched organoids [3] = experiment: Primary screen, 384-well 2.5-D organoid differentiation (ENR+CD, 6 days, Target Selective Inhibitor Library, vs whole-plate median): ATP (CellTiter-Glo 3D, CTG); conditions: for Dose.FC.CTG / Z.CTG / SSMD.CTG: primary screen; for Dose.FC.CTG: FC vs plate median; for Dose.FC.CTG (log 2 fold change, ATP): vs plate median; for SSMD.CTG: strictly standardized mean difference
# [4] = dose 0.08 uM (1st of 4 lines per treatment; dose not printed in this part)
# [5] = dose 0.40 uM (2nd of 4 lines per treatment; dose not printed in this part)
# [6] = dose 2.00 uM (3rd of 4 lines per treatment; dose not printed in this part)
# [7] = dose 10.00 uM (4th of 4 lines per treatment; dose not printed in this part)
# [8] = dose 0.08 uM, standard z score of FC
# [9] = dose 0.40 uM, standard z score of FC
# [10] = dose 2.00 uM, standard z score of FC
# [11] = dose 10.00 uM, standard z score of FC
# [12] = Dose 10.00 uM, standard z score
# [13] = 1st of the 4 dose lines of the treatment (dose not given)
# [14] = 2nd of the 4 dose lines of the treatment (dose not given)
# [15] = 3rd of the 4 dose lines of the treatment (dose not given)
# [16] = 4th of the 4 dose lines of the treatment (dose not given)
smiles,measurement,setting,value
CC1(C)CCC(CN2CCN(c3ccc(C(=O)NS(=O)(=O)c4ccc(NCC5CCOCC5)c([N+](=O)[O-])c4)c(Oc4cnc5[nH]ccc5c4)c3)CC2)=C(c2ccc(Cl)cc2)C1 [ABT-199 (GDC-0199)],SSMD.LYZ.NS_Rep (strictly standardized mean difference),ISC-enriched organoids [1]; [4],−0.009
same,SSMD.LYZ.NS_Rep (strictly standardized mean difference),ISC-enriched organoids [1]; [5],−0.192
same,SSMD.LYZ.NS_Rep (strictly standardized mean difference),ISC-enriched organoids [1]; [6],−0.116
same,SSMD.LYZ.NS_Rep (strictly standardized mean difference),ISC-enriched organoids [1]; [7],−0.810
same,Dose.FC.LYZ.NS,"ISC-enriched organoids [1]; dose 0.08 uM, ENR+CD 6 days",−0.002 log 2 fold change
same,Z.LYZ.NS,ISC-enriched organoids [1]; [8],−0.013
same,Dose.FC.LYZ.NS,"ISC-enriched organoids [1]; dose 0.40 uM, ENR+CD 6 days",−0.029 log 2 fold change
same,Z.LYZ.NS,ISC-enriched organoids [1]; [9],−0.251
same,Dose.FC.LYZ.NS,"ISC-enriched organoids [1]; dose 2.00 uM, ENR+CD 6 days",−0.016 log 2 fold change
same,Z.LYZ.NS,ISC-enriched organoids [1]; [10],−0.136
same,Dose.FC.LYZ.NS,"ISC-enriched organoids [1]; dose 10.00 uM, ENR+CD 6 days",−0.169 log 2 fold change
same,Z.LYZ.NS,ISC-enriched organoids [1]; [11],−1.471
same,SSMD.LYZ.S_Rep (strictly standardized mean difference),ISC-enriched organoids [2]; [4],−0.260
same,Z.LYZ.S (standard z score),ISC-enriched organoids [2]; [4],−0.285
same,SSMD.LYZ.S_Rep (strictly standardized mean difference),ISC-enriched organoids [2]; [5],0.443
same,Z.LYZ.S (standard z score),ISC-enriched organoids [2]; [5],0.494
same,SSMD.LYZ.S_Rep (strictly standardized mean difference),ISC-enriched organoids [2]; [6],−0.368
same,Z.LYZ.S (standard z score),ISC-enriched organoids [2]; [6],−0.404
same,SSMD.LYZ.S_Rep (strictly standardized mean difference),ISC-enriched organoids [2]; [7],−1.131
same,Z.LYZ.S (standard z score),ISC-enriched organoids [2]; [7],−1.890
same,Dose.FC.LYZ.S,"ISC-enriched organoids [2]; dose 0.08 uM, ENR+CD 6 days",−0.044 log 2 fold change
same,Dose.FC.LYZ.S,"ISC-enriched organoids [2]; dose 0.40 uM, ENR+CD 6 days",0.076 log 2 fold change
same,Dose.FC.LYZ.S,"ISC-enriched organoids [2]; dose 2.00 uM, ENR+CD 6 days",−0.063 log 2 fold change
same,Dose.FC.LYZ.S,"ISC-enriched organoids [2]; dose 10.00 uM, ENR+CD 6 days",−0.292 log 2 fold change
same,SSMD.CTG_Rep (strictly standardized mean difference),ISC-enriched organoids [3]; [4],0.051
same,SSMD.CTG_Rep (strictly standardized mean difference),ISC-enriched organoids [3]; [5],0.111
same,SSMD.CTG_Rep (strictly standardized mean difference),ISC-enriched organoids [3]; [6],−0.377
same,SSMD.CTG_Rep (strictly standardized mean difference),ISC-enriched organoids [3]; [7],−1.402
same,Dose.FC.CTG,"ISC-enriched organoids [3]; dose 0.08 uM, ENR+CD 6 days",0.019 log 2 fold change
same,Z.CTG,ISC-enriched organoids [3]; [8],0.045
same,Dose.FC.CTG,"ISC-enriched organoids [3]; dose 0.40 uM, ENR+CD 6 days",0.038 log 2 fold change
same,Z.CTG,ISC-enriched organoids [3]; [9],0.090
same,Dose.FC.CTG,"ISC-enriched organoids [3]; dose 2.00 uM, ENR+CD 6 days",−0.278 log 2 fold change
same,Z.CTG,ISC-enriched organoids [3]; [10],−0.665
same,Dose.FC.CTG,"ISC-enriched organoids [3]; dose 10.00 uM, ENR+CD 6 days",−0.519 log 2 fold change
same,Z.CTG,ISC-enriched organoids [3]; [11],−1.240
Cc1cc(C)nc(NS(=O)(=O)c2ccc(NC(=S)NC(=O)COc3ccc(Br)cc3Cl)cc2)n1 [ZCL278],Z.LYZ.NS (standard z score),ISC-enriched organoids [1]; dose 0.08 uM,−0.729
same,"Dose.FC.LYZ.NS (log 2 fold change, basal lysozyme secretion)",ISC-enriched organoids [1]; dose 0.08 uM,−0.084
same,Z.LYZ.NS (standard z score),ISC-enriched organoids [1]; dose 0.40 uM,−0.325
same,"Dose.FC.LYZ.NS (log 2 fold change, basal lysozyme secretion)",ISC-enriched organoids [1]; dose 0.40 uM,−0.037
same,Z.LYZ.NS (standard z score),ISC-enriched organoids [1]; dose 2.00 uM,0.218
same,"Dose.FC.LYZ.NS (log 2 fold change, basal lysozyme secretion)",ISC-enriched organoids [1]; dose 2.00 uM,0.025
same,Z.LYZ.NS (standard z score),ISC-enriched organoids [1]; dose 10.00 uM,0.130
same,"Dose.FC.LYZ.NS (log 2 fold change, basal lysozyme secretion)",ISC-enriched organoids [1]; dose 10.00 uM,0.015
same,"Dose.FC.LYZ.S (log 2 fold change, carbachol-induced lysozyme secretion)",ISC-enriched organoids [2]; dose 0.08 uM,−0.107
same,"Dose.FC.LYZ.S (log 2 fold change, carbachol-induced lysozyme secretion)",ISC-enriched organoids [2]; dose 0.40 uM,0.077
same,"Dose.FC.LYZ.S (log 2 fold change, carbachol-induced lysozyme secretion)",ISC-enriched organoids [2]; dose 2.00 uM,−0.079
same,"Dose.FC.LYZ.S (log 2 fold change, carbachol-induced lysozyme secretion)",ISC-enriched organoids [2]; dose 10.00 uM,−0.080
same,Z.CTG (standard z score),ISC-enriched organoids [3]; dose 0.08 uM,−2.303
same,"Dose.FC.CTG (log 2 fold change, ATP)",ISC-enriched organoids [3]; dose 0.08 uM,−0.964
same,Z.CTG (standard z score),ISC-enriched organoids [3]; dose 0.40 uM,0.044
same,"Dose.FC.CTG (log 2 fold change, ATP)",ISC-enriched organoids [3]; dose 0.40 uM,0.018
same,Z.CTG (standard z score),ISC-enriched organoids [3]; dose 2.00 uM,−0.545
same,"Dose.FC.CTG (log 2 fold change, ATP)",ISC-enriched organoids [3]; dose 2.00 uM,−0.228
same,Z.CTG (standard z score),ISC-enriched organoids [3]; dose 10.00 uM,−0.247
same,"Dose.FC.CTG (log 2 fold change, ATP)",ISC-enriched organoids [3]; dose 10.00 uM,−0.104
O=C(Nc1ccccc1)c1cc([N+](=O)[O-])ccc1Cl [GW9662],Dose.FC.LYZ.NS,ISC-enriched organoids [1]; Dose 0.08 uM,0.035 log 2 fold change
same,Z.LYZ.NS,"ISC-enriched organoids [1]; Dose 0.08 uM, standard z score",0.305
same,Dose.FC.LYZ.NS,ISC-enriched organoids [1]; Dose 0.40 uM,0.098 log 2 fold change
same,Z.LYZ.NS,"ISC-enriched organoids [1]; Dose 0.40 uM, standard z score",0.852
same,Dose.FC.LYZ.NS,ISC-enriched organoids [1]; Dose 2.00 uM,0.046 log 2 fold change
same,Z.LYZ.NS,"ISC-enriched organoids [1]; Dose 2.00 uM, standard z score",0.400
same,Dose.FC.LYZ.NS,ISC-enriched organoids [1]; Dose 10.00 uM,0.030 log 2 fold change
same,Z.LYZ.NS,ISC-enriched organoids [1]; [12],0.264
same,SSMD.LYZ.NS,ISC-enriched organoids [1]; [13],0.272
same,SSMD.LYZ.NS,ISC-enriched organoids [1]; [14],0.722
same,SSMD.LYZ.NS,ISC-enriched organoids [1]; [15],0.336
same,SSMD.LYZ.NS,ISC-enriched organoids [1]; [16],0.282
same,Dose.FC.LYZ.S,ISC-enriched organoids [2]; Dose 0.08 uM,0.036 log 2 fold change
same,Dose.FC.LYZ.S,ISC-enriched organoids [2]; Dose 0.40 uM,0.080 log 2 fold change
same,Dose.FC.LYZ.S,ISC-enriched organoids [2]; Dose 2.00 uM,0.093 log 2 fold change
same,Dose.FC.LYZ.S,ISC-enriched organoids [2]; Dose 10.00 uM,0.020 log 2 fold change
same,Z.LYZ.S,ISC-enriched organoids [2]; [13],0.235
same,Z.LYZ.S,ISC-enriched organoids [2]; [14],0.520
same,Z.LYZ.S,ISC-enriched organoids [2]; [15],0.599
same,Z.LYZ.S,ISC-enriched organoids [2]; [16],0.131
same,SSMD.LYZ.S,ISC-enriched organoids [2]; [13],0.218
same,SSMD.LYZ.S,ISC-enriched organoids [2]; [14],0.534
same,SSMD.LYZ.S,ISC-enriched organoids [2]; [15],0.571
same,SSMD.LYZ.S,ISC-enriched organoids [2]; [16],0.149
same,Dose.FC.CTG,ISC-enriched organoids [3]; Dose 0.08 uM,0.115 log 2 fold change
same,Z.CTG,"ISC-enriched organoids [3]; Dose 0.08 uM, standard z score",0.274
same,Dose.FC.CTG,ISC-enriched organoids [3]; Dose 0.40 uM,0.041 log 2 fold change
same,Z.CTG,"ISC-enriched organoids [3]; Dose 0.40 uM, standard z score",0.098
same,Dose.FC.CTG,ISC-enriched organoids [3]; Dose 2.00 uM,0.212 log 2 fold change
same,Z.CTG,"ISC-enriched organoids [3]; Dose 2.00 uM, standard z score",0.508
same,Dose.FC.CTG,ISC-enriched organoids [3]; Dose 10.00 uM,0.133 log 2 fold change
same,Z.CTG,ISC-enriched organoids [3]; [12],0.318
same,SSMD.CTG,ISC-enriched organoids [3]; [13],0.301
same,SSMD.CTG,ISC-enriched organoids [3]; [14],0.117
same,SSMD.CTG,ISC-enriched organoids [3]; [15],0.715
same,SSMD.CTG,ISC-enriched organoids [3]; [16],0.378
